The text below walks through data of US11918553B2, “Anti-oncogenic phytochemicals comprising substituted henicosanoic acid and henicosenoic acid” (Ostentus Therapeutics, Inc., priority 2022, dated 2024).

Where only a bound is given, the exact number is not on record here.

Common to all, as to experiment: Apoptosis flow cytometry assay of HPLC fractions and synthesized compounds
The subject of one test is MV-4-11 cells. Format: cell-based, human. The procedure: Apoptosis flow cytometry assays were performed essentially as described in Example 3. In one series of experiments, cultures MV-4-11 cells were grown to an appropriate density and approximately 20,000 cells/100 μL were seeded into wells of 96-well cell culture microplate. For each fraction, either 0.5 μL/mL of a fraction or 1 μL/mL of a fraction was then added to transferred cells for each cell line and incubated for 24 hours at 37° C. in 5% CO2 incubator. […] Cells were then assessed for apoptosis by an apoptosis flow cytometry assay employing with a fluorochrome-conjugated Annexin V and/or the fluorescent nucleic acid dye 4,6-diamidino-2-phenylindole (DAPI) (APC Annexin V, BD Bioscience, CA) following protocols provided by the manufacture. […] Aliquots were then incubated in the dark for 15 minutes with either 1) an Annexin-V-APC conjugate and DAPI, 1) an Annexin-V-APC conjugate; or 3) DAPI. An unstained aliquot was also set up as a negative control to define the basal level of apoptotic and dead cells. The percentage of cells that have been induced to undergo apoptosis is then determined by subtracting the percentage of apoptotic cells in the unstained aliquot from percentage of apoptotic cells in the stained aliquot. After staining, cells were washed in ice-cold PBS and resuspended in 300 μL of the Annexin V buffered solution, and analysis by flow cytometry using an LSR II flow cytometer (BD Bioscience, CA). […] Mean cell numbers between the OST-01 treated and control group was statistically analyzed by using unpaired, two-tailed Student's t test, with values from at least two independent experiments with triplicate determination. […]
Raw data obtained from these analyses were searched against a natural product databases, a flavonoid database, and other chemspider databases centered to plant natural products for putative identification. IN addition, based on the most abundant precursor ions detected in DI-MS, compounds were manually searched to assign putative identify of the abundant compounds. […]

The subject of another test is HL-60 cells. Type of test: cell-based, human. The note with it: HL-60, highest amount tested (50 μM).
The subject of the next test is THP-1 cells. Type of test: cell-based. The note with it: THP-1, highest amount tested (200 μM), relative to ethanol or DMSO negative controls (FIG. 26B).

For `O=C(O)CCCCCCCCCCCCCCCCCCCCO`, the “increase in DAPI positive cells” value with MV-4-11 cells (MV-4-11, up to 30 μM, relative to ethanol negative control, decline at higher concentrations (FIG. 28A)) is not below 8 fold; in the test on HL-60 cells (relative to ethanol negative control (FIG. 28B)), “over 4 fold”. Moreover, the “increase in Annexin V positive cells” value in the test on HL-60 cells (relative to ethanol or DMSO negative controls (FIG. 27B)) is recorded as “over 1.5 fold”.
In the case of `O=C(O)/C=C/CCCCCCCCCCCCCCCCCCO` [(2E)-21-Hydroxy-2-henicosenoic acid], the “increase in Annexin V positive cells” value is recorded as “over 2 fold” in the test on MV-4-11 cells (MV-4-11, highest amount tested (50 μM), relative to ethanol negative control (FIG. 27A)); not below 55% with MV-4-11 cells (MV-4-11, highest amount tested (200 μM), relative to ethanol or DMSO negative controls (FIG. 26A)); not below 50% in the test with THP-1 cells.
